Laboratory results as given in US8420144B2, “Kokumi-imparting agent, method of using, and compositions containing same” (Ajinomoto Co., Inc., priority 2005, dated 2013).
Numbered stars: 1 amine (or outer) side, 2 acyl side, 3 side chain; on linkers, the order of the positions; unused ones are H or OH. Square brackets hold non-standard residues; d marks the D form. Peptide text beside a SMILES is read from it. γGlu = O=C(O)[C@H](CCC(=O)[*:2])N[*:1]; Tle = CC(C)(C)[C@H](N)C(=O)O

What was measured:
[1] = Quantitative sensory evaluation test: kokumi-imparting activity of peptides combined with known calcium receptor activators or additives; format: in vivo, human; details: alone; for Intensity of kokumi: Aftertaste / Intensity of kokumi: First and middle taste: n=12, 0 control, 3 intense, 6 extremely intense
Experimental: The intensity of the kokumi-imparting activity of each peptide having confirmed calcium receptor activation activity and a known calcium receptor activator used in combination was measured by a quantitative sensory evaluation test, performed as follows: Samples of γ-Glu-Cys-Gly (glutathione) or γ-Glu-Val-Gly (0.0001 to 1 g/dl), or these samples combined with a calcium receptor activator such as calcium lactate, protamine or polylysine, or GABA (addition concentration: 0.0001 to 1 g/dl) were added to distilled water containing sodium glutamate (0.05 g/dl), inosine monophosphate (0.05 g/dl), and sodium chloride (0.5 g/dl), and the intensity of the kokumi-imparting activity was measured. Sample solutions that became acidic after dissolution of the samples were adjusted to pH 6.8 to 7.2 with NaOH before use. Sensory evaluation scores were used to evaluate as follows: 0 points for the control sample, 3 points for intense activity (as intensity of 0.05 g/dl γ-Glu-Cys-Gly and 0.005 g/dl γ-Glu-Val-Gly), and 6 points for extremely intense activity (as twice intensity of 0.05 g/dl γ-Glu-Cys-Gly and 0.005 g/dl γ-Glu-Val-Gly), and the test was performed with n=12.

human CaSR = target: T1, human CaSR (Homo sapiens, UniProt P41180); assay: Calcium receptor (CaSR) activation activity: calcium imaging in HEK 293 cells expressing human CaSR; format: cell-based; details: concentration giving 50% of the maximal activity; single values n = 1, others n = 2 or 3
T1 construct: expressed in transfected cells; host or cells: HEK 293 cells, transient transfection of a CMV-promoter expression vector
T1 sequence (P41180 20-1078): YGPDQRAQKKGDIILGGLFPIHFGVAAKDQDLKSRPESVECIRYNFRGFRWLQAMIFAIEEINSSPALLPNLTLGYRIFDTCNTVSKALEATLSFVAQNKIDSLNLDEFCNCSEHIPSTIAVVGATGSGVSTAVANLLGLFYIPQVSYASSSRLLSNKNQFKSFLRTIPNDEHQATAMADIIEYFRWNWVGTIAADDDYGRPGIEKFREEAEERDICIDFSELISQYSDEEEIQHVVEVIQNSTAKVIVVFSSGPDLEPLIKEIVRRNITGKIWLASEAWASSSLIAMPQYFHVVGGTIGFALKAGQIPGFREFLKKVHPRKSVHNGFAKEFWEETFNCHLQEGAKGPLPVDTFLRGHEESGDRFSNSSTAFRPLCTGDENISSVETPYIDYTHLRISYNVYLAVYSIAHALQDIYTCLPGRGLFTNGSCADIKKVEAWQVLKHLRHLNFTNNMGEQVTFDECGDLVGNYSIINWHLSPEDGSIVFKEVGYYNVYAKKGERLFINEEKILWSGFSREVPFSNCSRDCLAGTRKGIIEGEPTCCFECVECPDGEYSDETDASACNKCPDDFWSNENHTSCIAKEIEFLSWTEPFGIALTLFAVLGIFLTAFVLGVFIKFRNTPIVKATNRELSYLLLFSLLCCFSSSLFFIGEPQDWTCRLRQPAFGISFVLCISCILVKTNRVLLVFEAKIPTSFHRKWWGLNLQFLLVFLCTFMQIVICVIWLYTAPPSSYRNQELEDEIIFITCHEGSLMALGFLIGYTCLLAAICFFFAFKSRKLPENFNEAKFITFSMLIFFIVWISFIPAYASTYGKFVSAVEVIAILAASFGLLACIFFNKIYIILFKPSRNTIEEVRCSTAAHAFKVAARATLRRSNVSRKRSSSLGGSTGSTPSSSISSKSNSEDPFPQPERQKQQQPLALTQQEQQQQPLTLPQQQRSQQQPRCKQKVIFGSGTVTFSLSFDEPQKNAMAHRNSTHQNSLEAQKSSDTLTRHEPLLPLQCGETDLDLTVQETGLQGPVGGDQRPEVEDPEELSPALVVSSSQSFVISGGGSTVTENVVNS
Experimental: Calcium receptor (CaSR) activation activity of peptides obtained in Examples 2, 3, and 5-12 were measured as follows. A cDNA of human CaSR obtained in Example 1 of WO2007/055393A1 was inserted into an expression vector for an animal cell having a CMV promoter, and the cDNA in the vector was introduced into HEK 293 cells, which had multiplied to 70% of the maximal cell density, using FuGINE6 (Roche Ltd.). After culturing the cells for 4 to 48 hours, 0.6-1.0×10^5 of cells/well were disseminated into a 96-well plate, subsequently, the cells were cultured for one day, and then stained using Calcium 3 Assay Kit. The presence or absence of a calcium receptor activation activity of each peptide was confirmed by a calcium imaging method using FLEXSTATION (Molecular Devices Inc., instruction manual). Furthermore, the concentration of each peptide giving 50% of the maximal activity (EC50) was calculated using a dose characteristic curve.

For `CC(O)C(=O)[O-].CC(O)C(=O)[O-].[Ca+2]` (stereo not drawn) [Calcium lactate], the Evaluation remarks ([1]; 0.25 g/dl) was “Thickness”, the “Intensity of kokumi: Aftertaste” value ([1]; 0.25 g/dl) was 0.5 points and the “Intensity of kokumi: First and middle taste” value ([1]; 0.25 g/dl) was 0.5 points.

In the case of `NCCCC(=O)O` [GABA], the Evaluation remarks ([1]; 0.025 g/dl) is reported as “Thickness”, the “Intensity of kokumi: Aftertaste” value ([1]; 0.025 g/dl) is reported as 0.5 points and the “Intensity of kokumi: First and middle taste” value ([1]; 0.025 g/dl) is reported as 0.5 points.

Work on `CC[C@H](NC(=O)CC[C@H](N)C(=O)O)C(=O)OCC(=O)O` [γ-Glu-Abu-GlyA] yielded an EC50 (human CaSR) of 65 to 79 nM.

Work on `CC[C@H](NC(=O)CC[C@H](N)C(=O)O)C(=O)O[C@@H](C)C(=O)O` [γ-Glu-Abu-LacA] yielded an EC50 (human CaSR) of 102 nM.

In the case of `CC(C)(NC(=O)CC[C@H](N)C(=O)O)C(=O)NCC(=O)O` [γ-Glu-Aib-Gly], the EC50 (human CaSR) is reported as 349 to 1170 nM.

`N[C@@H](CCC(=O)NC1(C(=O)NCC(=O)O)CCCC1)C(=O)O` [γ-Glu-Cle-Gly] gave an EC50 (human CaSR) of 500 to 1500 nM.

With `CC(C)(S)[C@H](NC(=O)CC[C@H](N)C(=O)O)C(=O)NCC(=O)O` [γ-Glu-Pen-Gly] the EC50 (human CaSR) was 159 to 233 nM.

`CC(C)[C@H](NC(=O)CC[C@H](N)C(=O)O)C(=O)OCC(=O)O` [γ-Glu-Val-GlyA] showed an EC50 (human CaSR) of 140 nM.

For `CC(C)[C@H](NC(=O)CC[C@H](N)C(=O)O)C(=O)O[C@@H](C)C(=O)O` [γ-Glu-Val-LacA], the EC50 (human CaSR) was 57 nM.

`CC(C)(C)[C@H](NC(=O)CC[C@H](N)C(=O)O)C(=O)OCC(=O)O` [γ-Glu-t-Leu-GlyA] gave an EC50 (human CaSR) of 50 nM.

In the case of `CC(C)(C)[C@H](NC(=O)CC[C@H](N)C(=O)O)C(=O)NCC(=O)O` [γ-Glu-t-Leu-Gly] (γGlu-[Tle]-Gly-OH), the EC50 (human CaSR) is reported as 43 to 77 nM.

With `C[C@H](OC(=O)[C@@H](NC(=O)CC[C@H](N)C(=O)O)C(C)(C)C)C(=O)O` [γ-Glu-t-Leu-LacA] the EC50 (human CaSR) was 38 nM.

In the case of Polylysine, the Evaluation remarks ([1]; 0.001 g/dl) is reported as “Thickness”, the “Intensity of kokumi: Aftertaste” value ([1]; 0.001 g/dl) is reported as 0.5 points and the “Intensity of kokumi: First and middle taste” value ([1]; 0.001 g/dl) is reported as 0.5 points.

In the case of Protamine, the “Intensity of kokumi: Aftertaste” value ([1]; 0.005 g/dl) is reported as 1.0 points and the “Intensity of kokumi: First and middle taste” value ([1]; 0.005 g/dl) is reported as 1.5 points.
